System: chicken embryonic stem cells
Assay: Titration kill curve: cES cells in culture exposed to puromycin or neomycin
Assay type: cell-based
Design: key to Morphology of cES cells: ES: ES cells are present.; diff: ES cells are differentiated.; gone: no morphologically recognizable cells are present
Method: In a preferred embodiment, the concentration of puromycin required for selecting transfected cells is calculated as a titration kill curve. Titration kill curves for chicken embryonic stem cells are established by exposing cells in culture to puromycin concentrations varying from 0.0 to 1.0 μg/ml for 10 days (Table 7) and neomycin concentrations varying from 0.0 to 200 μg/ml (Table 8). The medium is changed every 2 days and fresh puromycin or neomycin is added. […] Puromycin concentrations of 0.3-1.0 μg/ml are used for selection of the transfected cultures. Neomycin concentrations over 40 μg/ml eliminated all cES cells within 7 days (Table 8).

COc1ccc(C[C@H](N)C(=O)N[C@H]2[C@@H](O)[C@H](n3cnc4c(N(C)C)ncnc43)O[C@@H]2CO)cc1 [Puromycin, puromycin]
Presence of ES cells in wells after exposure (0.3 μg/ml puromycin, 3 changes of medium with fresh puromycin over a six day period): absent from all wells
Morphology of cES cells (puromycin 0.1 μg/ml, day 1 under selection): ES
Morphology of cES cells (puromycin 0.1 μg/ml, day 2 under selection): ES
Morphology of cES cells (puromycin 0.1 μg/ml, day 3 under selection): ES
Morphology of cES cells (puromycin 0.1 μg/ml, day 4 under selection): ES
Morphology of cES cells (puromycin 0.1 μg/ml, day 5 under selection): ES
Morphology of cES cells (puromycin 0.1 μg/ml, day 6 under selection): ES
Morphology of cES cells (puromycin 0.1 μg/ml, day 7 under selection): ES
Morphology of cES cells (puromycin 0.1 μg/ml, day 8 under selection): ES
Morphology of cES cells (puromycin 0.1 μg/ml, day 9 under selection): ES
Morphology of cES cells (puromycin 0.1 μg/ml, day 10 under selection): ES
Morphology of cES cells (puromycin 0.2 μg/ml, day 1 under selection): ES
Morphology of cES cells (puromycin 0.2 μg/ml, day 2 under selection): ES
Morphology of cES cells (puromycin 0.2 μg/ml, day 3 under selection): ES
Morphology of cES cells (puromycin 0.2 μg/ml, day 4 under selection): ES
Morphology of cES cells (puromycin 0.2 μg/ml, day 5 under selection): ES
Morphology of cES cells (puromycin 0.2 μg/ml, day 6 under selection): ES
Morphology of cES cells (puromycin 0.2 μg/ml, day 7 under selection): ES
Morphology of cES cells (puromycin 0.2 μg/ml, day 8 under selection): ES
Morphology of cES cells (puromycin 0.2 μg/ml, day 9 under selection): ES
Morphology of cES cells (puromycin 0.2 μg/ml, day 10 under selection): ES
Morphology of cES cells (puromycin 0.25 μg/ml, day 1 under selection): ES
Morphology of cES cells (puromycin 0.25 μg/ml, day 2 under selection): ES
Morphology of cES cells (puromycin 0.25 μg/ml, day 3 under selection): ES
Morphology of cES cells (puromycin 0.25 μg/ml, day 4 under selection): ES
Morphology of cES cells (puromycin 0.25 μg/ml, day 5 under selection): ES
Morphology of cES cells (puromycin 0.25 μg/ml, day 6 under selection): diff
Morphology of cES cells (puromycin 0.25 μg/ml, day 7 under selection): diff
Morphology of cES cells (puromycin 0.3 μg/ml, day 1 under selection): ES
Morphology of cES cells (puromycin 0.3 μg/ml, day 2 under selection): ES
Morphology of cES cells (puromycin 0.3 μg/ml, day 3 under selection): diff
Morphology of cES cells (puromycin 0.3 μg/ml, day 6 under selection): gone
Morphology of cES cells (puromycin 0.3 μg/ml, day 7 under selection): gone
Morphology of cES cells (puromycin 0.3 μg/ml, day 8 under selection): gone
Morphology of cES cells (puromycin 0.3 μg/ml, day 9 under selection): gone
Morphology of cES cells (puromycin 0.3 μg/ml, day 10 under selection): gone
Morphology of cES cells (puromycin 0.4 μg/ml, day 1 under selection): ES
Morphology of cES cells (puromycin 0.4 μg/ml, day 2 under selection): diff
Morphology of cES cells (puromycin 0.4 μg/ml, day 3 under selection): gone
Morphology of cES cells (puromycin 0.4 μg/ml, day 4 under selection): gone
Morphology of cES cells (puromycin 0.4 μg/ml, day 5 under selection): gone
Morphology of cES cells (puromycin 0.4 μg/ml, day 6 under selection): gone
Morphology of cES cells (puromycin 0.4 μg/ml, day 7 under selection): gone
Morphology of cES cells (puromycin 0.4 μg/ml, day 8 under selection): gone
Morphology of cES cells (puromycin 0.4 μg/ml, day 9 under selection): gone
Morphology of cES cells (puromycin 0.4 μg/ml, day 10 under selection): gone
Morphology of cES cells (puromycin 0.5 μg/ml, day 1 under selection): diff
Morphology of cES cells (puromycin 0.5 μg/ml, day 2 under selection): gone
Morphology of cES cells (puromycin 0.5 μg/ml, day 3 under selection): gone
Morphology of cES cells (puromycin 0.5 μg/ml, day 4 under selection): gone
Morphology of cES cells (puromycin 0.5 μg/ml, day 5 under selection): gone
Morphology of cES cells (puromycin 0.5 μg/ml, day 6 under selection): gone
Morphology of cES cells (puromycin 0.5 μg/ml, day 7 under selection): gone
Morphology of cES cells (puromycin 0.5 μg/ml, day 8 under selection): gone
Morphology of cES cells (puromycin 0.5 μg/ml, day 9 under selection): gone
Morphology of cES cells (puromycin 0.5 μg/ml, day 10 under selection): gone
Morphology of cES cells (puromycin 0.6 μg/ml, day 1 under selection): diff
Morphology of cES cells (puromycin 0.6 μg/ml, day 2 under selection): gone
Morphology of cES cells (puromycin 0.6 μg/ml, day 3 under selection): gone
Morphology of cES cells (puromycin 0.6 μg/ml, day 4 under selection): gone
Morphology of cES cells (puromycin 0.6 μg/ml, day 5 under selection): gone
Morphology of cES cells (puromycin 0.6 μg/ml, day 6 under selection): gone
Morphology of cES cells (puromycin 0.6 μg/ml, day 7 under selection): gone
Morphology of cES cells (puromycin 0.6 μg/ml, day 8 under selection): gone
Morphology of cES cells (puromycin 0.6 μg/ml, day 9 under selection): gone
Morphology of cES cells (puromycin 0.6 μg/ml, day 10 under selection): gone
Morphology of cES cells (puromycin 0.7 μg/ml, day 1 under selection): diff
Morphology of cES cells (puromycin 0.7 μg/ml, day 2 under selection): gone
Morphology of cES cells (puromycin 0.7 μg/ml, day 3 under selection): gone
Morphology of cES cells (puromycin 0.7 μg/ml, day 4 under selection): gone
Morphology of cES cells (puromycin 0.7 μg/ml, day 5 under selection): gone
Morphology of cES cells (puromycin 0.7 μg/ml, day 6 under selection): gone
Morphology of cES cells (puromycin 0.7 μg/ml, day 7 under selection): gone
Morphology of cES cells (puromycin 0.7 μg/ml, day 8 under selection): gone
Morphology of cES cells (puromycin 0.7 μg/ml, day 9 under selection): gone
Morphology of cES cells (puromycin 0.7 μg/ml, day 10 under selection): gone
Morphology of cES cells (puromycin 0.8 μg/ml, day 1 under selection): gone
Morphology of cES cells (puromycin 0.8 μg/ml, day 2 under selection): gone
Morphology of cES cells (puromycin 0.8 μg/ml, day 3 under selection): gone
Morphology of cES cells (puromycin 0.8 μg/ml, day 4 under selection): gone
Morphology of cES cells (puromycin 0.8 μg/ml, day 5 under selection): gone
Morphology of cES cells (puromycin 0.8 μg/ml, day 6 under selection): gone
Morphology of cES cells (puromycin 0.8 μg/ml, day 7 under selection): gone
Morphology of cES cells (puromycin 0.8 μg/ml, day 8 under selection): gone
Morphology of cES cells (puromycin 0.8 μg/ml, day 9 under selection): gone
Morphology of cES cells (puromycin 0.8 μg/ml, day 10 under selection): gone
